In patent publication US9155695B2, “Injectable ropinirole compositions and methods for making and using same” (Medtronic, Inc., priority 2013, dated 2015):
Counter-ions that a name gives are not always drawn.

Legend:
[1] = system: site of infusion; experiment: Toxicology, subcutaneous infusion site reaction; assay type: in vivo, rabbits and minipigs
Procedure: Toxicology was tested on rats, rabbits and minipigs. A sterilized injectable ropinirole composition at 15 mg/mL/day was administered to the rabbits and minipigs. Injection sites were administered 1 mL of infusate per day for 3 days and tissues collected immediately after cessation of delivery. […] A slight trend towards larger reactions with higher concentrations/doses of ropinirole relative to vehicle-treated sites was found but was concluded to be much less severe than apomorphine-induced inflammation at clinically relevant doses (FIGS. 12 and 13).

[2] = system: site of infusion; experiment: Histopathology score of site reactions in the subcutis at the cannula tip; details: apomorphine, microscopic
[3] = Pharmacokinetics of injectable ropinirole administered subcutaneously, steady state plasma levels; assay type: in vivo; details: minipigs, subcutaneous, ropinirole 15 mg/ml terminally sterilized (Table A)
[4] = system: site of infusion; details: in vivo
[5] = Pharmacokinetics of injectable ropinirole administered subcutaneously, steady state plasma levels; assay type: in vivo; details: rats, subcutaneous, sterilized ropinirole HCl in sterile water for injection, no excipients
Description: The rats were given sterilized ropinirole HCl in sterile water for injection, no excipients.

Row | two and three repeat administrations to the same site versus single 3-day administration [4] | Structure (SMILES) | size of site reaction relative to 15 mg/mL/day ropinirole ([1]; minipig, 10 mg/3 mL/day, 3 days infusion) | inflammation score [2] | necrosis score [2] | steady state plasma levels versus dose [3] | inflammation/necrosis at the site of infusion ([1]; 15 mg/mL/day, 1 mL per day for 3 days) | gross detectability of reactions at the local sites of infusion ([1]; seen only at cannula tip in the subcutis upon microscopic evaluation) | steady state plasma levels versus dose [5]
1 |  | CN1CCc2cccc3c2[C@H]1Cc1ccc(O)c(O)c1-3 [apomorphine] | approximately twice as large | severe | moderate |  |  |  | 
2 | did not differ significantly | CCCN(CCC)CCc1cccc2c1CC(=O)N2 [ropinirole, 4-[2-(dipropylamino)ethyl]-1,3-dihydro-2H-indol2-one monohydrochloride] |  |  |  | approximate linear relationship to the dose administered | mild inflammation/necrosis | not detectable grossly at the surface of the skin | approximate linear relationship to the dose administered
